Experiment in all cases: DTP human tumour cell line panel, 48 h
For assay [1], the system named is NCI-H226.
Assay [2] has as its system SF-268.
The subject of assay [3] is OVCAR-4.
Assay [4] concerns HCT-116.
The test system of assay [5] is SK-OV-3.
Assay [6] relates to RXF 393.
Assay [7] relates to EKVX.
Assay [8] deals with SK-MEL-2.
Assay [9] deals with MCF7.
Assay [10] relates to Hs-578T.
In assay [11] the test system is BT-549.
For assay [12], the system named is IGROV-1.
The test system of assay [13] is DU-145.
The test system of assay [14] is OVCAR-5.
Assay [15] relates to RPMI-8226.
Assay [16] deals with COLO 205.
The test system of assay [17] is OVCAR-8.
In assay [18] the test system is T47D.
The test system of assay [19] is CAKI-1.
The subject of assay [20] is NCI-H23.

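Protocol summary: plate cells (96-well), add compound at 5 concentrations, incubate 48 h, interpolate endpoints linearly. The concentration for 50% growth inhibition is given as GI50.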 Active and inactive are the calls of the source. No stated cut-off is given here; in the data, active = GI50 up to about 1.1 µM and inactive = higher.

For `OC1CSCCCSCCSCCCSC1`, the GI50 in assay [1], in assay [2], in assay [3], in [4], in assay [5] and in assay [6] was > 100 µM (inactive) each time. For the same compound, the GI50 in assay [7], in assay [8], in assay [9], in assay [10], in assay [11] and in assay [12] was > 100 µM (inactive) in each case. The GI50 in assay [13] is > 100 µM (inactive); in assay [14], > 100 µM (inactive); in assay [15], 37.6 µM (inactive); in assay [16], > 100 µM (inactive); in [17] it was > 100 µM (inactive); in [18] it was > 100 µM (inactive). The GI50 in [19] and in assay [20] was > 100 µM (inactive) throughout.

Take `CCOC(=O)c1cc(Br)c(-c2onc(C)c2Br)n1C`: the GI50 is 55.2 µM (inactive) in assay [1]; 75 µM (inactive) in assay [2]; 38.5 µM (inactive) in assay [3]; 18.9 µM (inactive) in assay [4]; 21.9 µM (inactive) in assay [5]; 10.2 µM (inactive) in assay [6]. Moreover, the GI50 in assay [7] was 6.08 µM (inactive); in [8], 36.6 µM (inactive); in assay [9] it was 23.6 µM (inactive); in assay [10], 10.8 µM (inactive); in [11], 41.4 µM (inactive); in [12], 59.8 µM (inactive). Also, the GI50 in assay [13] was 93.5 µM (inactive); in assay [14], 19.4 µM (inactive); in assay [15], 55 µM (inactive); in assay [16], 28.4 µM (inactive); in [17] it was 63.4 µM (inactive); in assay [18], 15.6 µM (inactive). Further, the GI50 is 12.8 µM (inactive) in assay [19] and 47.8 µM (inactive) in [20].

In the case of `C=CCn1c(-c2ccc(Cl)cc2Cl)cs/c1=N\c1c(C)n(C)n(-c2ccccc2)c1=O`, the GI50 was 15.7 µM (inactive) in assay [1]; 15.7 µM (inactive) in [2]; 8.11 µM (inactive) in [3]; 7.24 µM (inactive) in assay [4]; 5.04 µM (inactive) in assay [5]; 14.5 µM (inactive) in assay [6]. Also, the GI50 in assay [7] was 3.54 µM (inactive); in assay [8] it was 14.7 µM (inactive); in assay [9] it was 9.14 µM (inactive); in assay [10], 16.1 µM (inactive); in [11], 12.9 µM (inactive); in [12] it was 17 µM (inactive). Also, the GI50 was 13.2 µM (inactive) in assay [13]; 16.4 µM (inactive) in [14]; 7.19 µM (inactive) in assay [15]; 12.3 µM (inactive) in assay [16]; 5.81 µM (inactive) in [17]; 3.12 µM (inactive) in [18]. Besides, the GI50 in assay [19] was 14.4 µM (inactive); in assay [20], 9.82 µM (inactive).

As to `COc1ccc(C)c2c1N[C@](C)([C@]1(C)Nc3c(OC)ccc(C)c3C1=O)C2=O`, the GI50 was > 100 µM (inactive) in [1]; 51.6 µM (inactive) in assay [2]; > 100 µM (inactive) in assay [3]; > 100 µM (inactive) in assay [4]; > 100 µM (inactive) in assay [5]; > 100 µM (inactive) in assay [6]. The GI50 in assay [7] was > 100 µM (inactive); in [8], > 100 µM (inactive); in assay [9], > 100 µM (inactive); in assay [10] it was 39.3 µM (inactive); in [11], > 100 µM (inactive); in assay [12], > 100 µM (inactive). The GI50 in assay [13] was > 100 µM (inactive); in assay [14] it was > 100 µM (inactive); in assay [15], > 100 µM (inactive); in assay [16], > 100 µM (inactive); in assay [17], 49.4 µM (inactive); in assay [18], > 100 µM (inactive). For the same compound, the GI50 in assay [19] and in assay [20] was > 100 µM (inactive) each time.

Take `CCN(CC)CCNc1c2ccccc2nc2cccc([N+](=O)[O-])c12`: the 50% growth inhibitory concentration (GI50) was 0.0179 µM (active) in assay [1]; 0.012 µM (active) in [2]; 0.0125 µM (active) in [3]; 0.00676 µM (active) in assay [4]; 0.0343 µM (active) in [5]; 0.0176 µM (active) in assay [6]. Further, the GI50 was 0.0177 µM (active) in assay [7]; 0.0133 µM (active) in assay [8]; 0.00135 µM (active) in assay [9]; 0.017 µM (active) in assay [10]; 0.005 µM (active) in assay [11]; 0.0182 µM (active) in assay [12]. Further, the GI50 was 0.0031 µM (active) in assay [13]; 0.0101 µM (active) in [14]; 0.00659 µM (active) in assay [15]; 0.00461 µM (active) in [16]; 0.0177 µM (active) in assay [17]; 0.0101 µM (active) in [18]. Besides, the figures for the GI50 in assay [19] and in assay [20] were 0.0158 µM (active) and 0.00787 µM (active), respectively.

Consider `O=C(CNc1ccc2c(=S)c3ccccc3[nH]c2c1)Nc1ccccc1-c1ccccc1NC(=O)CNc1ccc2c(=S)c3ccccc3[nH]c2c1`, for which the GI50 is 26 µM (inactive) in assay [1]; 22 µM (inactive) in assay [2]; 3.94 µM (inactive) in [3]; 18.5 µM (inactive) in assay [4]; 26.3 µM (inactive) in assay [5]; 27 µM (inactive) in [6]. The GI50 in assay [7] was 24.4 µM (inactive); in [8], 15.6 µM (inactive); in assay [9] it was 16.4 µM (inactive); in assay [10] it was 29.2 µM (inactive); in [11], 23.8 µM (inactive); in assay [12], 20.2 µM (inactive). Besides, the GI50 in [13] is 18.3 µM (inactive); in assay [14], 28.7 µM (inactive); in [15], 8.75 µM (inactive); in assay [16], 11.9 µM (inactive); in [17] it was 23.9 µM (inactive); in assay [18] it was 15.6 µM (inactive). The values for the GI50 in [19] and in assay [20] were 30.1 µM (inactive) and 13.8 µM (inactive), respectively.

Turning to `Cc1cn(CCCCCOC(=O)NC(CCCNC(=N)N)C(=O)O)c(=O)[nH]c1=O` (stereo not given), the GI50 in assay [1] is 30.3 µM (inactive); in assay [2] it was > 100 µM (inactive); in assay [3], > 100 µM (inactive); in [4] it was 37.6 µM (inactive); in [5], 48.9 µM (inactive); in assay [6], 33.3 µM (inactive). Besides, the GI50 is 40.3 µM (inactive) in [7]; > 100 µM (inactive) in assay [8]; 54.7 µM (inactive) in [9]; 15.5 µM (inactive) in [10]; > 100 µM (inactive) in assay [11]; 38.1 µM (inactive) in assay [12]. Besides, the GI50 in assay [13] was 37.5 µM (inactive); in assay [14], > 100 µM (inactive); in [15] it was 11.7 µM (inactive); in [16], 26.1 µM (inactive); in assay [17] it was 39.4 µM (inactive); in [18], > 100 µM (inactive). Besides, the GI50 was 37.1 µM (inactive) in assay [19] and 40.2 µM (inactive) in assay [20].

A word on the GI50: it is the concentration giving 50% growth inhibition.
